The test system of this test is T1, Bacillus GDH.
T1 construct: commercial enzyme from GDH activity colorimetric assay kit (Biovision)
Nature of the test: WST-8/1-mPMS formazan assay, […] nm, Michaelis-Menten fit. The format is biochemical. As to conditions: 20 mM Tris-HCl pH 9.0, 37 °C.

Where two headings read alike, the source gives them in different places.

Turning to `OC[C@H]1OC(O)[C@H](O)[C@@H](O)[C@@H]1O` (stereo partly drawn) [D-(+)-glucose], the Km (1 mM NAD+, read-out: KM (mM) / Glucose) is 17.1 ± 2 mM. In the case of `NC(=O)c1ccc[n+]([C@@H]2O[C@H](COP(=O)(O)OP(=O)(O)OC[C@H]3O[C@@H](n4cnc5c(N)ncnc54)[C@H](O)[C@@H]3O)[C@@H](O)[C@H]2O)c1` [NAD^+], the Km (250 mM glucose, read-out: KM (mM) / NAD^+) turned out to be 0.271 ± 0.027 mM.
